From patent publication US5656603A (Loyola University of Chicago, priority 1995, dated 1997) come the findings set out here.

What all share (assay type): biochemical
Assay [1] has as its target T1, dipeptidyl-peptidase IV (EC 3.4.14.5) (Bos taurus, UniProt P81425).
T1 construct: Unless otherwise indicated, the source of each enzyme activity was a detergent extract of bovine lung; from tissue; host or cells: detergent extract of bovine lung
Kind of assay: Specificity of apstatin: dipeptidyl-peptidase IV. The following applies: detergent extract of bovine lung; Gly-Pro-β-NA, pH 6.8, FLUO. As for the experimental part:
(§1) Specificity of Apstatin--Apstatin was assayed for its ability to inhibit several other peptidases. […] Unless otherwise indicated, the source of each enzyme activity was a detergent extract of bovine lung prepared as described in (12-13). Activities were determined by a modification of the fluorescent assay described above (indicated by "FLUO") or by HPLC separation and quantitation of reaction products using the method described in (12) (method "HPLC-1") or the method described below (method "HPLC-2"). […]

The target of the next assay is prolyl oligopeptidase (Ovis aries, UniProt A0ACI6PCU6). Kind of assay: Specificity of apstatin: prolyl oligopeptidase. Conditions: purified, lamb kidney; Bk, pH 6.8, HPLC-1.
Description: (§2) Enzymes--Membrane-bound aminopeptidase P was purified to homogeneity from bovine lung (14) and from rat lung. Partially purified membrane-bound aminopeptidase P from human lung was obtained by treatment of lung microsomes with phosphatidylinositol-specific phospholipase C (B. thuringiensis) (ICN, Costa Mesa, Calif.) followed by centrifugation as described previously (14). Membrane dipeptidase was purified from rat lung microsomes (manuscript in preparation). Recombinant E. coli aminopeptidase P (22) and purified lamb kidney prolyl oligopeptidase (23) were generally supplied by Dr. Tadashi Yoshimoto (Nagasaki University). Purified porcine kidney prolidase and purified porcine kidney aminopeptidase M was obtained from Sigma (St. Louis, Mo.).
as §1

In a further assay the target is T2, endopeptidase 24.11 (Bos taurus, UniProt E1BPL8).
T2 construct: Unless otherwise indicated, the source of each enzyme activity was a detergent extract of bovine lung; from tissue; host or cells: detergent extract of bovine lung
T2 sequence (E1BPL8 1-750): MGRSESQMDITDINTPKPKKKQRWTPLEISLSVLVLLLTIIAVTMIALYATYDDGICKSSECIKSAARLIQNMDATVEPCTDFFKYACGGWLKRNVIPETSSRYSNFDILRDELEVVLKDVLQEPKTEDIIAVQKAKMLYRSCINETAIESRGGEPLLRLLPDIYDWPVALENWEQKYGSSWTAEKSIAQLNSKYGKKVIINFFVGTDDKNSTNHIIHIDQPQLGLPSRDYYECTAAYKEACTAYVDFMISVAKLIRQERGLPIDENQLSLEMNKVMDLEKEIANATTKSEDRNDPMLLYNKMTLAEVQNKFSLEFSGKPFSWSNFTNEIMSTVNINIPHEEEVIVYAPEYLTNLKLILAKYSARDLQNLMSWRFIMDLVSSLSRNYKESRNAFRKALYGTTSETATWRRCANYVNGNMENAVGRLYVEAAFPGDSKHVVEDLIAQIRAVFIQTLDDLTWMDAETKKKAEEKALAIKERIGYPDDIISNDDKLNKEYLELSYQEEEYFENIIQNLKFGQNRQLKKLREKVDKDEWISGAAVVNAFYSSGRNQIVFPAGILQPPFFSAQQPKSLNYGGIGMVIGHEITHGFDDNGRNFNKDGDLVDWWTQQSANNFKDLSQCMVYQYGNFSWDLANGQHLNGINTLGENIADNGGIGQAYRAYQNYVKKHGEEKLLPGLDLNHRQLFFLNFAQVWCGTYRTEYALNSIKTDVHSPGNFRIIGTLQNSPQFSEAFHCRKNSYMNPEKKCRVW
Kind of assay: Specificity of apstatin: endopeptidase 24.11. Conditions: detergent extract of bovine lung; Suc-Ala-Ala-Phe-7-amido-4-methyl-coumarin, pH 6.8, HPLC-1. As for the experimental part: as §1

The target of assay [2] is T3, recombinant E. coli aminopeptidase P (Escherichia coli, UniProt P15034).
T3 construct: supplied by Dr. Tadashi Yoshimoto (Nagasaki University)
The experiment in a line: Aminopeptidase P inhibition, release of arginine from Arg-Pro-Pro (fluorescent assay).
Description: as §2
Enzyme Kinetics--Aminopeptidase P activity was determined by measuring the release of arginine from Arg-Pro-Pro by a fluorescent assay described previously (14). […] Each mixture was run in duplicate. Aliquots were removed from each incubation mixture at various times and assayed for the amount of arginine present to determine the reaction velocity. In general, reaction velocities were calculated from data representing less than 20% cleavage of substrate. Ki and Ki ' (=αKi) were determined from plots of 1/v versus concentration of inhibitor "i" (26) and S/v versus concentration of inhibitor "i" (27), respectively. These parameters were also determined from the slope replot and 1/v-intercept replot, respectively, of the 1/v versus 1/S plot (28). See e.g., FIG. 1B. The values from the two treatments of the data were averaged for each experiment. Experiments for each enzyme preparation were performed twice and the results averaged.

The next assay deals with T4, endopeptidase 24.15 (Rattus norvegicus, UniProt P24155).
T4 construct: endopeptidase 24.15 (EC 3.4.24.15) (rat brain synaptosomes); from tissue; host or cells: rat brain synaptosomes
The experiment in a line: Specificity of apstatin: endopeptidase 24.15. The following applies: rat brain synaptosomes; Bk(2-9), pH 6.8, HPLC-1. As for the experimental part: as §1

T3 sequence (P15034 whole entry): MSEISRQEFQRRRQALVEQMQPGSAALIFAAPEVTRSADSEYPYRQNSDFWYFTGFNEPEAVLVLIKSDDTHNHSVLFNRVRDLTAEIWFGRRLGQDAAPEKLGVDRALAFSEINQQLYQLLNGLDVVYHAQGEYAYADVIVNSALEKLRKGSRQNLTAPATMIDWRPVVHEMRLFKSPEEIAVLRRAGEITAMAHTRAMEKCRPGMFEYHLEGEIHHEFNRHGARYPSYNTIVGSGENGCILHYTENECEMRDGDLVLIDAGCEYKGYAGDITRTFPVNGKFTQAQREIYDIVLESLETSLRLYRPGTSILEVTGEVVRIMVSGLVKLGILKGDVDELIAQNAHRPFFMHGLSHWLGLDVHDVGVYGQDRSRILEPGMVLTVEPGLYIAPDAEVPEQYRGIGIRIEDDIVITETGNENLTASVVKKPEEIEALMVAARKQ
T4 sequence (P24155 whole entry): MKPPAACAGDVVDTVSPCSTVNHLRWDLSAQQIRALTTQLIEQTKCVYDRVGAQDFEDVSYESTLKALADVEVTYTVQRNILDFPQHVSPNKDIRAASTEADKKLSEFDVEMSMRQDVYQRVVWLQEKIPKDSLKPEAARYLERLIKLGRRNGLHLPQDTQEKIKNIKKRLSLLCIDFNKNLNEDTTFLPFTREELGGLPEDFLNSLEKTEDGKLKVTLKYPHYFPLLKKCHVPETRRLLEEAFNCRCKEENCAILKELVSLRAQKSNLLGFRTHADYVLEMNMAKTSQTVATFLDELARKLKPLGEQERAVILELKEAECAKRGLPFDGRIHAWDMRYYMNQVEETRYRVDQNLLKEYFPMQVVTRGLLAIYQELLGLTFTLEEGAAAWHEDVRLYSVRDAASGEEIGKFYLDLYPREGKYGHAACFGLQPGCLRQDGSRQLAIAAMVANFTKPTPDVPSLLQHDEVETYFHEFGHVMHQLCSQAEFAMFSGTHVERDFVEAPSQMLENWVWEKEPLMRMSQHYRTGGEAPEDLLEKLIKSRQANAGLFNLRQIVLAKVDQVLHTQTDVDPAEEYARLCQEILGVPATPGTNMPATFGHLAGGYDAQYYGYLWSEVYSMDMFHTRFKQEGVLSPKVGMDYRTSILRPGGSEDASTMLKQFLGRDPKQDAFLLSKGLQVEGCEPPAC
prolyl oligopeptidase, sequence (A0ACI6PCU6 entry or part of it): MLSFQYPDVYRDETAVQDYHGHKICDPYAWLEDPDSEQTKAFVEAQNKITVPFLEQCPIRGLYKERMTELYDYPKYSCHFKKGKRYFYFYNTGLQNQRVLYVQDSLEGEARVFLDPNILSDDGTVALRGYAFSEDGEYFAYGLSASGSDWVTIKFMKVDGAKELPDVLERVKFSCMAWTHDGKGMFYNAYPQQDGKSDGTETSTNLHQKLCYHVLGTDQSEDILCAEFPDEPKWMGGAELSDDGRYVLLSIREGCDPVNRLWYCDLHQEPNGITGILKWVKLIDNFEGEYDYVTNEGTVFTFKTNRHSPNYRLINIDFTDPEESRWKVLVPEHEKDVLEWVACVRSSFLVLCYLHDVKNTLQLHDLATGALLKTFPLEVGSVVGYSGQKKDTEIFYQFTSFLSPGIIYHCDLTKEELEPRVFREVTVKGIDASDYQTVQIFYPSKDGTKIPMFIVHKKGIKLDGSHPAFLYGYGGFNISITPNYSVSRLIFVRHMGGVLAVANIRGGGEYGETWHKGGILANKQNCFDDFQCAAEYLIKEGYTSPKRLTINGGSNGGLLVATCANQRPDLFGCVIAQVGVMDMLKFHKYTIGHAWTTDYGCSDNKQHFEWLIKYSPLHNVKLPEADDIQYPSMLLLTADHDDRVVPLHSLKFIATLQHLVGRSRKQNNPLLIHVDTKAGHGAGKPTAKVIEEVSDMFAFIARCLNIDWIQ
T1 sequence (P81425 whole entry): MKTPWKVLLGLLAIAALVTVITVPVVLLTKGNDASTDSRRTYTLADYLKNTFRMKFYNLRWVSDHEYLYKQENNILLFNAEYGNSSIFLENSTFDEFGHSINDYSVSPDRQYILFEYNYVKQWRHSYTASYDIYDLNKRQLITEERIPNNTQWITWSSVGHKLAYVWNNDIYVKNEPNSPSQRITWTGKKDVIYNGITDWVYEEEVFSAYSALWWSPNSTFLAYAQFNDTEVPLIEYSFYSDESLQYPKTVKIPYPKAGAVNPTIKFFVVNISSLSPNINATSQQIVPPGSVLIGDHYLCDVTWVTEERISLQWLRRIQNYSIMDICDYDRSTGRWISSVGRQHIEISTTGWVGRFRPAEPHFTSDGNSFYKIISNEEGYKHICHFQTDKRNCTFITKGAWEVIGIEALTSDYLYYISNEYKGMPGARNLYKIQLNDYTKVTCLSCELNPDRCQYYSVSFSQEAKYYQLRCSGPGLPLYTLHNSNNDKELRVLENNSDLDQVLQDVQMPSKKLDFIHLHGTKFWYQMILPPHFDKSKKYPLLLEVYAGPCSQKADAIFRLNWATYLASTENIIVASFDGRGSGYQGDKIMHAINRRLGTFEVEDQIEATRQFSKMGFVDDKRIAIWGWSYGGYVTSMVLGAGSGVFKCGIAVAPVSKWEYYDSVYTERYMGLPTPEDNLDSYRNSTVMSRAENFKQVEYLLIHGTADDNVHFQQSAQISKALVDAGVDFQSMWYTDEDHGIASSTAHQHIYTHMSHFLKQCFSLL

Take `C[C@H](NC(=O)[C@@H]1CCCN1C(=O)[C@@H]1CCCN1C(=O)[C@@H](O)[C@H](N)Cc1ccccc1)C(N)=O` [apstatin, N-[(2S, 3R)-3-amino-2-hydroxy-4-phenylbutanoyl]-L-prolyl-L-prolyl-Lalaninamide]: the concentration for half-maximal inhibition (IC50) was 1100 µM in assay [1], above 800 µM against prolyl oligopeptidase, above 800 µM against endopeptidase 24.11 and above 800 µM on endopeptidase 24.15. Further, the “α (αKi = equilibrium constant for enzyme-inhibitor binding at infinite substrate concentration)” value in assay [2] (E. coli, recombinant) was 2.5. Besides, the Ki in assay [2] (E. coli, recombinant, substrate Arg-Pro-Pro, 0.1 M Hepes pH 8.0, 39° C.) is 14 µM. Further, the type of inhibition result in assay [2] (recombinant E. coli aminopeptidase P) is listed as “linear mixed-type”.

One may read the IC50 as the concentration needed to halve the response being measured. Higher therefore signals weaker potency in that assay. As usually defined, the Ki is a measure of affinity in units of concentration, obtained from inhibition or displacement.
